Read-outs that look alike come from different tables or passages of the source. Marks after values point to notes of the source that are not given here.
Key:
[1] = Whole blood PK and whole blood/plasma partitioning after a single 1-h IV infusion of [^14C]-pevonedistat 25 mg/m^2 (part A); type: in vivo, human; settings: for blood plasma ratio: whole blood and plasma, iv, 25 mg/m^2, single 1-h IV infusion 25 mg/m^2
Excerpt: This was a two-part (A and B), open-label, multicenter, mass balance, distribution, metabolism, excretion (DME) study in adult patients with advanced solid tumors. […] Patients were required to stay at the part A study site for approximately 8 days or until the discharge criteria were met, with a maximum estimated confinement period of 9–14 days. Upon completion of part A, patients had the option to participate in part B at Medical Center Hungarian Defense Forces, Budapest, Hungary. […] Treatment was administered for 12 cycles or until discontinuation criteria were met.
Complete urinary and fecal output were collected for analysis of PK (urine) and total radioactivity (urine and feces) throughout the confinement period until discharge criteria were met. Bioanalytical assay methods are shown in the Supplementary Methods. […] In part B, disease assessments were conducted using radiological evaluations (computed tomography [CT] scan or magnetic resonance imaging [MRI], as clinically indicated).
Non-compartmental analysis using Phoenix™ WinNonlin® version 8.0 (Pharsight Corp., Mountain View, California, USA) was used for estimation of PK parameters for pevonedistat in whole blood, plasma, and urine and for total radioactivity in whole blood, plasma, urine, and feces. The following single-dose PK parameters were derived: maximum plasma concentration (Cmax), area under the concentration–time curve from time 0 to infinity (AUC∞), AUC from time 0 to the last quantifiable concentration (AUC0 − last), terminal disposition phase half-life (t1/2), renal clearance (CLR), clearance (CL), and volume of distribution at steady state (Vss).
PK data were summarized using descriptive statistics, and the PK and mass balance parameters described in Supplementary Table S1 were calculated by non-compartmental analysis for each individual patient. Safety was assessed in all patients who received at least one dose of pevonedistat, and TEAEs were coded according to the Medical Dictionary for Regulatory Activities (MedDRA), version 20.0. Analysis of efficacy in part B was descriptive; disease response was assessed in all patients who received at least one dose of pevonedistat, had measurable disease (per entry criteria for part B), and had at least one post-baseline disease assessment. Response assessment was done by the investigator using Response Evaluation Criteria in Solid Tumors (RECIST) version 1.1. SAS version 9.4 was used for all statistical analyses. […]
160 All samples were analyzed applying the methods described below:
After vortex mixing for at least 5 sec, the
170 Method for whole blood

[2] = Mass balance: recovery of total radioactivity in urine and feces (part A); type: in vivo, human; settings: post dose; single IV dose 25 mg/m^2
Experimental: This was a two-part (A and B), open-label, multicenter, mass balance, distribution, metabolism, excretion (DME) study in adult patients with advanced solid tumors. In part A, patients received a single IV infusion of [^14C]-pevonedistat 25 mg/m^2 (containing approximately 60–85 µCi, or 2.22–3.145 MBq, of total radioactivity) at a single center (Duna Medical Center, Budapest, Hungary). Patients were required to stay at the part A study site for approximately 8 days or until the discharge criteria were met, with a maximum estimated confinement period of 9–14 days. […]
The primary objectives of the study were to assess the mass balance (cumulative recovery of total radioactivity in urine and feces) and to characterize the PK of pevonedistat (whole blood, plasma, and urine) and total radioactivity (drug-related material; plasma and whole blood) following a single infusion of [^14C]-pevonedistat 25 mg/m^2 (part A).
Blood samples were collected for total radioactivity and PK assessments in whole blood and plasma at prespecified time points (pre dose [within 1 h before the start of the pevonedistat infusion], end of infusion, then 0.5, 1, 2, 3, 4, 8, 12, 24, 48, 72, 96, 120, 144 and 168 hours post dose). Complete urinary and fecal output were collected for analysis of PK (urine) and total radioactivity (urine and feces) throughout the confinement period until discharge criteria were met. […]

[3] = Safety (TEAEs, NCI CTCAE v4.03) after single dose of [^14C]-pevonedistat (part A); type: in vivo, human; settings: for On-study deaths, patients: part A, N = 8
Experimental: (§1) This was a two-part (A and B), open-label, multicenter, mass balance, distribution, metabolism, excretion (DME) study in adult patients with advanced solid tumors. In part A, patients received a single IV infusion of [^14C]-pevonedistat 25 mg/m^2 (containing approximately 60–85 µCi, or 2.22–3.145 MBq, of total radioactivity) at a single center (Duna Medical Center, Budapest, Hungary). Patients were required to stay at the part A study site for approximately 8 days or until the discharge criteria were met, with a maximum estimated confinement period of 9–14 days. Upon completion of part A, patients had the option to participate in part B at Medical Center Hungarian Defense Forces, Budapest, Hungary. In part B, patients received treatment in 3-week cycles with either: pevonedistat 20 mg/m^2 on days 1, 3, and 5 plus carboplatin AUC5 and paclitaxel 175 mg/m^2 on day 1; or pevonedistat 25 mg/m^2 on days 1, 3, and 5 plus docetaxel 75 mg/m^2 on day 1. Treatment was administered for 12 cycles or until discontinuation criteria were met.
(§2) Blood samples were collected for total radioactivity and PK assessments in whole blood and plasma at prespecified time points (pre dose [within 1 h before the start of the pevonedistat infusion], end of infusion, then 0.5, 1, 2, 3, 4, 8, 12, 24, 48, 72, 96, 120, 144 and 168 hours post dose). Complete urinary and fecal output were collected for analysis of PK (urine) and total radioactivity (urine and feces) throughout the confinement period until discharge criteria were met. Bioanalytical assay methods are shown in the Supplementary Methods. Safety was assessed by incidence and severity of TEAEs, vital signs, physical examinations, electrocardiograms, and clinical laboratory tests, and toxicities were graded according to the National Cancer Institute Common Terminology Criteria for Adverse Events (NCI CTCAE), version 4.03. In part B, disease assessments were conducted using radiological evaluations (computed tomography [CT] scan or magnetic resonance imaging [MRI], as clinically indicated).
PK data were summarized using descriptive statistics, and the PK and mass balance parameters described in Supplementary Table S1 were calculated by non-compartmental analysis for each individual patient. Safety was assessed in all patients who received at least one dose of pevonedistat, and TEAEs were coded according to the Medical Dictionary for Regulatory Activities (MedDRA), version 20.0. Analysis of efficacy in part B was descriptive; disease response was assessed in all patients who received at least one dose of pevonedistat, had measurable disease (per entry criteria for part B), and had at least one post-baseline disease assessment. Response assessment was done by the investigator using Response Evaluation Criteria in Solid Tumors (RECIST) version 1.1. SAS version 9.4 was used for all statistical analyses.

advanced solid tumors = test: Disease response by RECIST version 1.1 (part B); type: in vivo, human; settings: 7 patients evaluable, with carboplatin/paclitaxel or docetaxel
Experimental: as §1
as §2, with “In part B, disease assessments were conducted using radiological evaluations (computed tomography [CT] scan or magnetic resonance imaging [MRI], as clinically indicated).” left out
PK data were summarized using descriptive statistics, and the PK and mass balance parameters described in Supplementary Table S1 were calculated by non-compartmental analysis for each individual patient. […]

[4] = cited from earlier work
[5] = system: human colon and lung tumor xenograft models; design: method as in PMID 19509147; settings: repeated dosing, immunocompromised mice; cited from earlier work
[6] = human, whole blood, single 1-hr IV infusion 25 mg/m^2, geometric mean (CV), N = 7

SMILES: NS(=O)(=O)OC[C@@H]1C[C@@H](n2ccc3c(N[C@H]4CCc5ccccc54)ncnc32)C[C@@H]1O [Pevonedistat]
- clearance classification ([1]; based on whole blood CL vs hepatic blood flow): low clearance drug
- blood plasma ratio ([1]; human, mean (SD), N = 7, read-out: Whole blood/plasma AUClast ratio): 42.2
- blood plasma ratio ([1]; human, mean (SD), N = 7, read-out: Whole blood/plasma AUC∞ ratio): 40.8
- blood plasma ratio ([1]; human, mean (SD), N = 7, read-out: Whole blood/plasma Cmax ratio): 31.9
- AUC(0-inf) [1, 6]: 58600 ng·h/mL
- AUC(0-t) [1, 6]: 58500 ng·h/mL
- Cmax [1, 6]: 6720 ng/mL
- clearance [1, 6]: 13.5 mL/min
- Vd ([1]; human, whole blood, single 1-hr IV infusion 25 mg/m^2, geometric mean (CV), N = 7, read-out: Vss): 9.1 L
- half-life ([1]; human, whole blood, single 1-hr IV infusion 25 mg/m^2, mean (SD), N = 7): 13.9 h
- whole blood CL as share of hepatic blood flow ([1]; single dose 25 mg/m^2): approximately 1%
- Exposure ratio (AUC∞) of pevonedistat vs. total drug-related material ([1]; whole blood, single 1-h IV infusion 25 mg/m^2, mean): 0.44
- time by which the majority of the radioactivity was recovered [2]: ≤ 96 h
- Back pain, Any grade ([3]; human, in vivo): 1 (12.5) n (%)
- Back pain, Grade ≥ 3 ([3]; human, in vivo): 0 n (%)
- Constipation, Any grade ([3]; human, in vivo): 1 (12.5) n (%)
- Constipation, Grade ≥ 3 ([3]; human, in vivo): 0 n (%)
- Dizziness, Any grade ([3]; human, in vivo): 1 (12.5) n (%)
- Dizziness, Grade ≥ 3 ([3]; human, in vivo): 0 n (%)
- Sarcoma, Any grade ([3]; human, in vivo): 1 (12.5) n (%)
- Sarcoma, Grade ≥ 3 ([3]; human, in vivo): 1 (12.5)^a n (%)
- Serious TEAEs, patients ([3]; human, in vivo): 1 (12.5) n (%)
- Serious TEAEs: Drug-related, patients ([3]; human, in vivo): 0 (0.0) n (%)
- Serious TEAEs: Resulting in study discontinuation, patients ([3]; human, in vivo): 0 (0.0) n (%)
- TEAEs: Grade ≥ 3, patients ([3]; human, in vivo): 1 (12.5) n (%)
- TEAEs: Grade ≥ 3 drug-related, patients ([3]; human, in vivo): 0 (0.0) n (%)
- Urinary retention, Any grade ([3]; human, in vivo): 1 (12.5) n (%)
- Urinary retention, Grade ≥ 3 ([3]; human, in vivo): 0 n (%)
- Vomiting, Any grade ([3]; human, in vivo): 1 (12.5) n (%)
- Vomiting, Grade ≥ 3 ([3]; human, in vivo): 0 n (%)
- Serious TEAEs, patients ([3]; in vivo): no serious TEAEs
- On-study deaths, patients [3]: One
- On-study deaths, patients ([3]; listed as [^14C]-pevonedistat): 1 (12.5)^a n (%)
- best response of partial response (advanced solid tumors): One
- best response of stable disease (advanced solid tumors): 5 patients
- progressive disease (advanced solid tumors): remaining patient
- PK linearity ([4]; dose range 25–278 mg/m^2): linear and dose-proportional
- elimination half-life in plasma ([4]; patients with metastatic melanoma): approximately 10 hours
- mean terminal elimination half-life ([4]; plasma, estimated across doses and schedules, 1-h IV infusion): 5 to 8 h
- typical CL ([4]; population PK analysis in more than 300 patients): 31.5 L/h
- effect of mild or moderate renal impairment (creatinine clearance 30–89 mL/min) on exposure ([4]; population PK analysis): does not have a clinically meaningful impact on pevonedistat exposures
- tumor growth [5]: tumor growth inhibition

From article PMC7960626, “Phase I study assessing the mass balance, pharmacokinetics, and excretion of [^14C]-pevonedistat, a NEDD8-activating enzyme inhibitor in patients with advanced solid tumors” (Investigational New Drugs, 2020)
